ChEMBL document CHEMBL5465560, “Selectivity Literature for EUbOPEN Chemogenomic Library” (2024)

Experiments:
[1] = target: T1, Ankyrin repeat and protein kinase domain-containing protein 1 (Homo sapiens) (UniProt Q8NFD2); experiment: Selectivity interaction (KinomeScan (DiscoverX)) EUB0001049a ANKK1; details: at 1 µM
T1 sequence (whole entry): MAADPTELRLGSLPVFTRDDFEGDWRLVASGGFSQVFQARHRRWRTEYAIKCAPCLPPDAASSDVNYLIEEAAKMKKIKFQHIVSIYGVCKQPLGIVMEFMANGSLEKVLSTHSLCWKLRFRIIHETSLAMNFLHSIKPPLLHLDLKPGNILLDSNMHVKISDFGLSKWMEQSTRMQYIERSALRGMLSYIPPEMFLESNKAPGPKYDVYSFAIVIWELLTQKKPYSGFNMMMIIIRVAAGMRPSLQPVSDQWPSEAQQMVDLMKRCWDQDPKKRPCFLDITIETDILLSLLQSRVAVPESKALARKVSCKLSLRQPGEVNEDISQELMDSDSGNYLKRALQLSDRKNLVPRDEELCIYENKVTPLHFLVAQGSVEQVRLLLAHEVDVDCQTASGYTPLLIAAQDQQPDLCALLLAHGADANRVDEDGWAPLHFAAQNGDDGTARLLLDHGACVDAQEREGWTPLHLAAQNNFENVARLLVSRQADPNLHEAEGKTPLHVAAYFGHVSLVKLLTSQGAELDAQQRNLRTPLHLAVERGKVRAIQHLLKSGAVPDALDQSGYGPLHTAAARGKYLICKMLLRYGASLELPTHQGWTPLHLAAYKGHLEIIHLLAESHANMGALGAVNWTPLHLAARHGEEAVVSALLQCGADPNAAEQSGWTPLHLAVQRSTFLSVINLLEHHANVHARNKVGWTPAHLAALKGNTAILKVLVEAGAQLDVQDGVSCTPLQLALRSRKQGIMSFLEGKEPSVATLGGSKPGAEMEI

[2] = target: T2, Receptor-interacting serine/threonine-protein kinase 4 (Homo sapiens) (UniProt P57078); experiment: Selectivity interaction (KinomeScan (DiscoverX)) EUB0000229b RIPK4; details: at 10 µM
T2 sequence (whole entry): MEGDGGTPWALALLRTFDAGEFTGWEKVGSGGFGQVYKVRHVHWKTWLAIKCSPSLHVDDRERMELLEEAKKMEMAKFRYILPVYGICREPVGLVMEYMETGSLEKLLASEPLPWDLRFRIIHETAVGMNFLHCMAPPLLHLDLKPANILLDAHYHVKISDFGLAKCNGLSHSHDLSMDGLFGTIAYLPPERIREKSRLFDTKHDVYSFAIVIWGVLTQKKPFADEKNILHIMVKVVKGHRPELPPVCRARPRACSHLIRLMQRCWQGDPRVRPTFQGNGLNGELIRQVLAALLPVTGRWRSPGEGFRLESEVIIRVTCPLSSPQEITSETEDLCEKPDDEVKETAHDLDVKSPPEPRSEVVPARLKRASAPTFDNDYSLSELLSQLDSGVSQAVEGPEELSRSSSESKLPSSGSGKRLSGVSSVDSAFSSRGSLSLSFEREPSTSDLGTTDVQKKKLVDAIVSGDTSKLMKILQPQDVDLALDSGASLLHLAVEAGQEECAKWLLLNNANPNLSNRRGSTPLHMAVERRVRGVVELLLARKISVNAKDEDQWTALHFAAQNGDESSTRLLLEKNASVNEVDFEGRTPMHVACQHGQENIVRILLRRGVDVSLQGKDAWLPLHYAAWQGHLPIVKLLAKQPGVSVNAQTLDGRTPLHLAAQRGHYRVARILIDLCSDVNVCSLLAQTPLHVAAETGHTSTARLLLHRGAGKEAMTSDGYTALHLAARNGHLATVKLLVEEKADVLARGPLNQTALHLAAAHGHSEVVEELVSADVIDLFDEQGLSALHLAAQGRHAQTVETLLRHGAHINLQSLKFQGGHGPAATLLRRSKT

[3] = target: Insulin-like growth factor 1 receptor (Homo sapiens, UniProt P08069); experiment: Selectivity interaction (Kinase panel (33PanQinase(R) Activity Assay)) EUB0000877a IGF1R
Sequence of Insulin-like growth factor 1 receptor (P08069 31-736 limits assumed): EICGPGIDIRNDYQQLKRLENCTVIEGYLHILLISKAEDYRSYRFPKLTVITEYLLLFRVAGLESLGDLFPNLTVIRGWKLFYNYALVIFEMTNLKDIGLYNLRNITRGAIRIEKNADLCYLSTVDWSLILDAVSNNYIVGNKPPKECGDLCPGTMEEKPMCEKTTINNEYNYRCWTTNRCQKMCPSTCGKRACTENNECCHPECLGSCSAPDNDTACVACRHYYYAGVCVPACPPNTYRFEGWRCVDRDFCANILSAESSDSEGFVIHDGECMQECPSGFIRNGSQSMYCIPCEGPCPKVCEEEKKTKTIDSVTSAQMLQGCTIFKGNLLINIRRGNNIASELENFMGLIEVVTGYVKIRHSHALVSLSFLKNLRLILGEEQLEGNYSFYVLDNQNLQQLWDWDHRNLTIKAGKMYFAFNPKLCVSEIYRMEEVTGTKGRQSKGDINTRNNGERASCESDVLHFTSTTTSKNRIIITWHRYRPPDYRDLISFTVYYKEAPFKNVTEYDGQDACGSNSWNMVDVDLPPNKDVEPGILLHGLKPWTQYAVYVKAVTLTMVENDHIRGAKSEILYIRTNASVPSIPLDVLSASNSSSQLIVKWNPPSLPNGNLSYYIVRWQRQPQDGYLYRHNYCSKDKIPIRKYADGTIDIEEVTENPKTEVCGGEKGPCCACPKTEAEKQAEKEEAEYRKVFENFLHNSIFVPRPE
Sequence of Insulin-like growth factor 1 receptor (P08069 741-1367 limits assumed): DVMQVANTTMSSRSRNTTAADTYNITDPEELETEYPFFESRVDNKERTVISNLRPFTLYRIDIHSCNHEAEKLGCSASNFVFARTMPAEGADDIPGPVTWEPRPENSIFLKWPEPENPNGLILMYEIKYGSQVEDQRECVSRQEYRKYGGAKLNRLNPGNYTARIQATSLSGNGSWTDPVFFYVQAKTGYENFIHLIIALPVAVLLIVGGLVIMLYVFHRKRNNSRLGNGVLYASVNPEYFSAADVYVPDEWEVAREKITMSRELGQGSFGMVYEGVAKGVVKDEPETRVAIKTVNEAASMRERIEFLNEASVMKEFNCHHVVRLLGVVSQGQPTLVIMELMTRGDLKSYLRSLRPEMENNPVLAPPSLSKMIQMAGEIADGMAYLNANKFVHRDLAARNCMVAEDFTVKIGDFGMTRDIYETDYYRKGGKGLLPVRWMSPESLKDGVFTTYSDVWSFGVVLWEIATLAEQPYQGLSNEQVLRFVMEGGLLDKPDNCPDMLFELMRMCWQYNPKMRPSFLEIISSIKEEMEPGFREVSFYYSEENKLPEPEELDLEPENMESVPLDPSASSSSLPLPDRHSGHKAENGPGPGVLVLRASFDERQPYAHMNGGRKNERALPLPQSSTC

[4] = target: T3, Serine/threonine-protein kinase ULK3 (Homo sapiens) (UniProt Q6PHR2); experiment: Selectivity interaction (KinomeScan (DiscoverX)) EUB0000045b ULK3
T3 sequence (whole entry): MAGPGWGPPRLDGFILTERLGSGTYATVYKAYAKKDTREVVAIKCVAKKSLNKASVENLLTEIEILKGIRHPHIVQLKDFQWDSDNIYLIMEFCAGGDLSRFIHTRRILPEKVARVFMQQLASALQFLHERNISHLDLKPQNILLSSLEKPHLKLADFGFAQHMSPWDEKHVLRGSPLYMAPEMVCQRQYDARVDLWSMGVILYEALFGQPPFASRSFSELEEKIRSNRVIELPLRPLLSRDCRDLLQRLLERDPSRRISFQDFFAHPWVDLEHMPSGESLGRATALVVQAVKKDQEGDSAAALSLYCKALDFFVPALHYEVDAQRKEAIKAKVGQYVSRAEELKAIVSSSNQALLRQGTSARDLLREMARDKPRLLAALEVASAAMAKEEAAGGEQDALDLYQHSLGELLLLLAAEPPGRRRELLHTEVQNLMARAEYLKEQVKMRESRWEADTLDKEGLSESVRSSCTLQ

[5] = target: Cyclin-dependent kinase-like 1 (Homo sapiens) (UniProt Q00532); experiment: Selectivity interaction (KinomeScan (DiscoverX)) EUB0000655a CDKL1; details: at 10 µM
Sequence of Cyclin-dependent kinase-like 1 (Homo sapiens) (Q00532 whole entry): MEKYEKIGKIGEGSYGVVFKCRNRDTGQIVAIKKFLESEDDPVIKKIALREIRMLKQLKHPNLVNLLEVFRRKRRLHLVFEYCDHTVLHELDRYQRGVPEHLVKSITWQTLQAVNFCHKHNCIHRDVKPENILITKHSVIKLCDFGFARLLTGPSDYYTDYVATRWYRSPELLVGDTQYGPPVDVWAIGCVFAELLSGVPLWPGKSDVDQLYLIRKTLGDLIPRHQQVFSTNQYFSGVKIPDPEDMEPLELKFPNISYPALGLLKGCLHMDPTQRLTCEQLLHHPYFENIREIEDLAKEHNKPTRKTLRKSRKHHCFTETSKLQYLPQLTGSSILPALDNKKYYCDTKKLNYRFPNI

[6] = target: T4, Dual specificity mitogen-activated protein kinase kinase 7 (Homo sapiens) (UniProt O14733); experiment: Selectivity interaction (KinomeScan (DiscoverX)) EUB0000695a MAP2K7; details: at 100 nM
T4 sequence (whole entry): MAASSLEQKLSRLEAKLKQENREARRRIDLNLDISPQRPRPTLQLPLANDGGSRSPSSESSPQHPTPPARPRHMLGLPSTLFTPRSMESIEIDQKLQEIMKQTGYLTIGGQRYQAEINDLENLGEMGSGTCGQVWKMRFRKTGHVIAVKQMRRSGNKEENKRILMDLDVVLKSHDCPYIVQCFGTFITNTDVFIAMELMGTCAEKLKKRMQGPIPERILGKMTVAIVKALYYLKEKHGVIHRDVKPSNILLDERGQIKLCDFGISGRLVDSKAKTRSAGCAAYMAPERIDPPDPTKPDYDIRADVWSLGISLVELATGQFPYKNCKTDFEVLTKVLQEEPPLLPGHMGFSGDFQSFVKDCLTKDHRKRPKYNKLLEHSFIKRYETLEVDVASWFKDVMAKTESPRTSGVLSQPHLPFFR

COc1cc(Nc2nc(C)cc(-c3cnn4nc(OC)ccc34)n2)cc(C(F)(F)F)c1
% of control [1]: 70%

COc1cc(N(C)c2ccnc3ccc(C(F)(F)F)cc23)cc(OC)c1OC
% binding [2]: 68%

CCC(=O)N1CC[C@H](Nc2ncnc3c2CN(c2cnc(OC)c(C(F)(F)F)c2)CC3)C1 [LENIOLISIB]
IC50 [3]: > 10 µM

C=CC(=O)Nc1cc(-n2c(=O)ccc3cnc4ccc(-c5ccc(NS(C)(=O)=O)cc5)cc4c32)ccc1C
% of control ([4]; at 1 µM): 80% | % of control ([4]; at 10 µM): 100%

CN(C)CCOc1ccc(-c2nc(-c3ccncc3)c(-c3ccc4c(c3)CC/C4=N\O)[nH]2)cc1
% of control [5]: 100%

Cc1cc(F)c(C(=O)Nc2cccc(-c3nncn3C(C)C)n2)cc1-n1cnc(C2CC2)c1
% of control [6]: 95%
